Experimental data taken from US7189729B2, “Methods and compositions as protein kinase inhibitors” (IRM LLC, priority 2003, dated 2007).

Target: b-Raf (Homo sapiens, UniProt P15056)
Assay: b-Raf inhibition assay (IκBα substrate, 384-well plate)
Type: biochemical
Experimental: Compounds of the invention are tested for their ability to inhibit the activity of b-Raf. The assay is carried out in 384-well MaxiSorp plates (NUNC) with black walls and clear bottom. The substrate, IκBα is diluted in DPBS (1:750) and 15 μl is added to each well. The plates are incubated at 4° C. overnight and washed 3 times with TBST (25 mM Tris, pH 8.0, 150 mM NaCl and 0.05% Tween-20) using the EMBLA plate washer. Plates are blocked by Superblock (15 μl/well) for 3 hours at room temperature, washed 3 times with TBST and pat-dried. Assay buffer containing 20 μM ATP (10 μl) is added to each well followed by 100 nl or 500 nl of compound. B-Raf is diluted in the assay buffer (1 μl into 25 μl) and 10 μl of diluted b-Raf is added to each well ([…]). The plates are incubated at room temperature for 2.5 hours. The kinase reaction is stopped by washing the plates 6 times with TBST. Phosph-IκBα (Ser32/36) antibody is diluted in Superblock (1:10,000) and 15 μl is added to each well. The plates are incubated at 4° C. overnight and washed 6 times with TBST. AP-conjugated goat-anti-mouse IgG is diluted in Superblock (1:1,500) and 15 μl is added to each well. Plates are incubated at room temperature for 1 hour and washed 6 times with TBST. […] Plates are read on Acquest or Analyst GT using a Fluorescence Intensity Nanxin BBT anion (505 dichroic mirror).

b-Raf, sequence (P15056 whole entry): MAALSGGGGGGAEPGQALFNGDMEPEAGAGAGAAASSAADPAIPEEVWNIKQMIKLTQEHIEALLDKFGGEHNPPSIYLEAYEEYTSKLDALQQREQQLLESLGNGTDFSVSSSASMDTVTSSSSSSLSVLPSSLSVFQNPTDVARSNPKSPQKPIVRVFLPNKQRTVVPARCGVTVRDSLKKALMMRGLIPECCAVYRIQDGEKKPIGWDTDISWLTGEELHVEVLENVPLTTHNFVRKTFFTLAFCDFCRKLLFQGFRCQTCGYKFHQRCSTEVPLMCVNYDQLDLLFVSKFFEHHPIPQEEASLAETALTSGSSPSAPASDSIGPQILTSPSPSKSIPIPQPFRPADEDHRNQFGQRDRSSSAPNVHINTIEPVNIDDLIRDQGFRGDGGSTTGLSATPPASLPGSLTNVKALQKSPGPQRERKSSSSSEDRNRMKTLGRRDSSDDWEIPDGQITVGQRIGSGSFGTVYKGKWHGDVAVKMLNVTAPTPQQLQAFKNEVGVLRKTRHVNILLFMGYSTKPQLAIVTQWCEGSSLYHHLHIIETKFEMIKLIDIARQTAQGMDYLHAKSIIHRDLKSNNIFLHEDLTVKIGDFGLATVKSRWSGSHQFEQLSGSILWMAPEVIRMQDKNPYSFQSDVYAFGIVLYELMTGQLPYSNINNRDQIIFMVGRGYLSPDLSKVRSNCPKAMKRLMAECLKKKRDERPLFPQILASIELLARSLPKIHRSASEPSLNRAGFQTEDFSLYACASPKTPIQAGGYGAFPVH

IC50: 667 nM
Structure (SMILES): CN1CCN(Cc2ccc(C(=O)Nc3cccc(Nc4ccccc4-c4cc(Nc5cccc(N(C)C)c5)ncn4)c3)cc2)CC1 [Example 1, N-(3-{2-[6-(3-Dimethylamino-phenylamino)-pyrimidin-4-yl]-phenylamino}-phenyl)-4-(4-methyl-piperazin-1-ylmethyl)-benzamide]
